According to ChEMBL document CHEMBL4402540, “Structure-Activity Relationship Studies of Small Molecule Modulators of the Staphylococcal Accessory Gene Regulator” (J Med Chem, 2020):
pEC50, pIC50: −log10 of the molar value. Values belong to the molecule of their own block, whether it stands above or below them. Where a SMILES comes first, the peptide text is derived from it. Bridges are numbered along the chain shown (N, C = ends). [ ]: non-standard residue; d: D form. The star is where a group is joined. X1 = O=C(CCCOc1ccc(Cc2ccccc2)cc1)*; Dap = NC[C@H](N)C(=O)O

Experiments:
[1] = Inhibition of AgrC-1 Staphylococcus aureus RN10829 incubated for 45 mins by beta-lactamase reporter gene assay
[2] = target: T1, Receptor-histidine kinase AgrC (Staphylococcus aureus, UniProt O07911); assay: Inhibition of AgrC in mid-exponential phase Staphylococcus aureus RN6390B assessed as beta-lactamase activity incubated for 80 mins by spectrophotometric method
T1 sequence (O07911 whole entry): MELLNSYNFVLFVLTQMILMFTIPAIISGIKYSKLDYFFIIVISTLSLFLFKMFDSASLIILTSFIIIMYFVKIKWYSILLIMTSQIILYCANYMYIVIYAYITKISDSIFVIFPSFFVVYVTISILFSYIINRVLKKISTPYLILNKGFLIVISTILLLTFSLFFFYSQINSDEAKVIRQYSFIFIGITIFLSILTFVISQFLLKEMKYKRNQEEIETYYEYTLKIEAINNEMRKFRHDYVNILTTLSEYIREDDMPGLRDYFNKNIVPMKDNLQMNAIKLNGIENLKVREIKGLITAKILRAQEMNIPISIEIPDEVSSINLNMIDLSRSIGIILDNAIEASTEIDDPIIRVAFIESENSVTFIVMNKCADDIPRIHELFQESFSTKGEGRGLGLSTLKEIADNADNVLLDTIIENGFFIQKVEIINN

[3] = target: T2, Receptor-histidine kinase AgrC (Staphylococcus aureus) (UniProt O07911); assay: Activation of AgrC in early exponential phase Staphylococcus aureus RN6390B assessed as beta-lactamase activity incubated for 55 mins by spectrophotometric method
T2 sequence (whole entry): T1 sequence (O07911 whole entry)

[4] = target: T1, Receptor-histidine kinase AgrC; assay: Inhibition of AgrC in mid-exponential phase Staphylococcus aureus SA502A assessed as beta-lactamase activity incubated for 80 mins by spectrophotometric method
[5] = target: T1, Receptor-histidine kinase AgrC; assay: Inhibition of AgrC in mid-exponential phase Staphylococcus aureus RN8463 assessed as beta-lactamase activity incubated for 80 mins by spectrophotometric method
Staphylococcus aureus [6] = assay: Agonist activity at AgrC-4 in Staphylococcus aureus RN9371 incubated for 60 to 90 mins by beta-lactamase reporter gene assay
Staphylococcus aureus [7] = assay: Agonist activity at AgrC-1 in Staphylococcus aureus RN9222 incubated for 60 to 90 mins by beta-lactamase reporter gene assay
[8] = Inhibition of AgrC-2 in Staphylococcus aureus RN9372 incubated for 60 to 90 mins in presence of AIP agonist by beta-lactamase reporter gene assay
[9] = Agonist activity at AgrC-3 in Staphylococcus aureus incubated for 60 to 90 mins in presence of AIP agonist by beta-lactamase reporter gene assay
Staphylococcus aureus [10] = assay: Antibacterial activity against methicillin-resistant Staphylococcus aureus USA300 infected in CD-1 mouse MRSA sepsis model assessed as survival rate at 30 mg/kg, ip after 144 hrs (reference value: 70%); assay type: functional
Staphylococcus aureus [11] = assay: Agonist activity at AgrC-3 in Staphylococcus aureus incubated for 60 to 90 mins by beta-lactamase reporter gene assay
[12] = Inhibition of AgrC-1 in Staphylococcus aureus RN9222 incubated for 60 to 90 mins in presence of AIP agonist by beta-lactamase reporter gene assay
[13] = Agonist activity at AgrC-4 in Staphylococcus aureus RN9371 incubated for 60 to 90 mins in presence of AIP agonist by beta-lactamase reporter gene assay
[14] = Inhibition of AgrC-1 in Staphylococcus aureus AH1677 incubated for 24 hrs by fluorescence assay
[15] = Drug degradation in ammonium carbonate solution 0.3 mg after 8 hrs after RP-HPLC analysis; assay type: physicochemical; settings: read-out: Drug degradation
[16] = Inhibition of AgrC-2 in Staphylococcus aureus RN9372 by beta-lactamase reporter gene assay
[17] = Inhibition of AgrC-2 in Staphylococcus aureus RN9532 by beta-lactamase reporter gene assay
[18] = Agonist activity at AgrC-4 in Staphylococcus aureus RN9371 by beta-lactamase reporter gene assay
[19] = Inhibition of AgrC-1 in Staphylococcus aureus
[20] = Inhibition of AgrC-2 in Staphylococcus aureus
[21] = Inhibition of AgrC-3 in Staphylococcus aureus
[22] = Inhibition of AgrC-4 in Staphylococcus aureus
[23] = Inhibition of AgrC-2 in Staphylococcus aureus AH430 incubated for 24 hrs by fluorescence assay
[24] = Inhibition of AgrC-3 in Staphylococcus aureus AH1747 incubated for 24 hrs by fluorescence assay
[25] = Inhibition of AgrC-4 in Staphylococcus aureus AH1872 incubated for 24 hrs by fluorescence assay
[26] = Activation of AgrC-1 Staphylococcus epidermidis AH3408 incubated for 24 hrs by fluorescence assay
[27] = Inhibition of AgrC-1 Staphylococcus aureus RN6390B by agr-blaZ reporter gene assay
[28] = Inhibition of AgrC-2 Staphylococcus aureus SA564 by agr-blaZ reporter gene assay

- pIC50 [16]: 6.38
- pIC50 [17]: 7.44
- pIC50 [18]: < 6.00
Structure (SMILES): CC[C@H](C)[C@H](NC(=O)[C@@H](N)CC(=O)O)C(=O)N[C@H]1CSC(=O)[C@H](Cc2ccccc2)NC(=O)[C@H](Cc2ccc(O)cc2)NC(=O)[C@H](C)NC(=O)[C@H](CC(N)=O)NC1=O (H-DICNAYF; thioester 3-C)

- pIC50 [19]: 9.30
- pIC50 [20]: 9.40
- pIC50 [21]: 10.30
- pIC50 [22]: 10.52
- pIC50 [14]: 8.54 to 9.31
- pIC50 [23]: 8.46 to 9.37
- pIC50 [24]: 9.46 to 10.30
- pIC50 [25]: 9.12 to 10.46
Structure (SMILES): CC[C@@H](C)[C@H](NC(C)=O)C(=O)N[C@H](CC(N)=O)C(=O)N[C@@H]1CSC(=O)[C@@H](Cc2ccccc2)NC(=O)[C@@H](CC(C)C)NC(=O)[C@@H](CC(C)C)NC(=O)[C@@H](C)NC1=O

- pEC50 [26]: 7.99
Structure (SMILES): CC(C)[C@H](NC(=O)[C@H](CO)NC(=O)[C@H](C)N)C(=O)N[C@H]1CSC(=O)[C@H](Cc2ccccc2)NC(=O)[C@H](Cc2ccc(O)cc2)NC(=O)[C@H](C)NC(=O)[C@H](C)NC1=O (H-ASVCAAYF; thioester 4-C)

- pIC50 [27]: 6.53
- pIC50 [28]: 7.72
Structure (SMILES): CC[C@H](C)[C@@H]1NC(=O)[C@H](Cc2ccccc2)NC(=O)[C@H](C)NC(=O)[C@@H](NC(=O)[C@@H](NC(=O)[C@H](CO)NC(=O)CCCOc2ccc(Cc3ccccc3)cc2)[C@@H](C)O)CSC(=O)[C@H](CCSC)NC1=O (X1-STCAFIM; thioester 3-C)

More lines, now with the values behind:

Structure (SMILES): CC(=O)N[C@H]1CSC(=O)[C@@H](CC(C)C)NC(=O)[C@@H](CC(C)C)NC(=O)[C@@H](Cc2ccccc2)NC(=O)[C@@H](CC(=O)O)NC1=O
- pIC50 [1]: 7.77

Structure (SMILES): CC(C)C[C@@H]1NC(=O)[C@H](CO)NC(=O)[C@H](CO)NC(=O)[C@@H](NC(=O)[C@H](C)NC(=O)[C@H](CC(N)=O)NC(=O)[C@@H](NC(=O)CN)C(C)C)COC(=O)[C@H](Cc2ccccc2)NC1=O (H-GVNASSSLF; ester 5-C)
- pIC50 [2]: 8.10

Structure (SMILES): CC[C@H](C)[C@@H]1NC(=O)[C@H](Cc2ccccc2)NC(=O)[C@H](CC(=O)O)NC(=O)[C@@H](NC(=O)[C@@H](NC(=O)[C@H](CO)NC(=O)[C@@H](N)Cc2ccc(O)cc2)[C@@H](C)O)CSC(=O)[C@H](CCSC)NC1=O (H-YSTCDFIM; thioester 4-C)
- ED50 [3]: 10.2 nM
- pIC50 [4]: 8.47
- pIC50 [5]: 8.51
- ED50 (Staphylococcus aureus [6]): 26000 nM
- ED50 (Staphylococcus aureus [7]): 28 nM
- pIC50 [8]: 7.60
- pIC50 [9]: 8.52

Structure (SMILES): CCCCCCc1cc(C(=O)COc2ccc(C(C)C)cc2)c(O)cc1O
- survival at 30 mg/kg (Staphylococcus aureus [10]): 100%

Structure (SMILES): CC[C@H](C)[C@H](N)C(=O)N[C@@H](CC(N)=O)C(=O)N[C@H]1CSC(=O)[C@H](CC(C)C)NC(=O)[C@H](CC(C)C)NC(=O)[C@H](Cc2ccccc2)NC(=O)[C@H](CC(=O)O)NC1=O (H-INCDFLL; thioester 3-C)
- ED50 (Staphylococcus aureus [11]): 26 nM
- pIC50 [12]: 7.15
- pIC50 [8]: 8.22
- pIC50 [13]: 6.82
- pIC50 [14]: 8.30
- degraded at 8 h [15]: 100%

Structure (SMILES): CC(C)C[C@@H]1NC(=O)[C@H](CO)NC(=O)[C@H](CO)NC(=O)[C@@H](NC(=O)[C@H](C)NC(=O)[C@H](CC(N)=O)NC(=O)[C@@H](NC(=O)CN)C(C)C)CNC(=O)[C@H](Cc2ccccc2)NC1=O (H-GVNA[Dap]SSLF; lactam 5-C)
- pIC50 [2]: > 9.00
